# How the values were obtained:
# [1] = test system: 3T3-L1 adipocytes; test: 2-NBDG glucose uptake assay in differentiated 3T3-L1 adipocytes; assay type: cell-based, mouse; settings: 10 µM, plate reader fluorescence
# Protocol: PTPN9 inhibitors have been reported to increase glucose uptake. To clarify the antidiabetic effects of GA analogs, a 2-NBDG (a fluorescent glucose probe) uptake assay was performed using differentiated 3T3-L1 adipocytes and C2C12 myotubes. After 16 h of starvation, differentiated 3T3-L1 adipocytes were incubated with compounds 1e and 1f for another 1 h. The cells were subsequently incubated with 2-NBDG for 30 min and washed with PBS before quantifying the fluorescence of 2-NBDG taken up by the cells. The 2-NBDG uptake-increasing effects of GA and its analogs in 3T3-L1 cells were monitored via confocal microscopy. The blank group was set in the absence of 2-NBDG but was treated with DMSO to determine the basal fluorescence levels in 3T3-L1 adipocytes (Figure 4A, Basal); in the negative control group, 3T3-L1 adipocytes were treated with 2-NBDG and DMSO for the evaluation of basal glucose uptake levels (Figure 4A, DMSO). […] Furthermore, to quantify 2-NBDG uptake, fluorescence intensity (Ex/Em = 485/535 nm) was measured using a plate reader. […] After incubation, the cells were washed with pre-cold PBS, and the fluorescence intensity was measured using a fluorescence microplate reader (Victor^TM X4, PerkinElmer, Waltham, MA, USA) (Ex/Em = 485/535 nm). […]
# [2] = test system: Akt phosphorylation in PA-induced insulin-resistant C2C12 cells; test: Palmitic acid-induced insulin resistance in C2C12 myotubes (p-Akt); assay type: cell-based, mouse; settings: PA (250 µM, 16 h)-treated C2C12, 5 μM compound for 30 min with 100 nM insulin
# Protocol: Since insulin plays an important role in regulating glucose metabolism through the redistribution of GLUT4 from intracellular vesicles to the cell surface, it is important to describe the interaction between 1e and insulin in the Akt pathway. […] Next, we evaluated the protective effects of 1e against PA-induced insulin resistance in C2C12 myotubes. To generate an insulin resistance model, C2C12 myotubes were treated with 250 µM PA in a serum-free medium for 16 h. Akt phosphorylation levels in PA-treated C2C12 cells decreased by 50% compared to levels in normal C2C12 cells (Figure 6C). Furthermore, in the presence of insulin and GA, Akt phosphorylation levels decreased only by 30% compared to levels in normal cells. […] In addition, the GA analogs induced no cytotoxic effects in C2C12 muscle cells (data not shown). […] The expression levels of glucose uptake-related proteins were determined via Western blotting, as previously described. In brief, differentiated 3T3-L1 cells were plated in six-well plates at a 1.5 × 10^4 cells/well density in a final volume of 2 mL. […] Secondary antibodies were added to the membranes at a concentration of 1:2000 for 1 h at room temperature, and immunoreactive bands were detected via ECL (GE Healthcare Korea Co., Ltd., Incheon, Korea). […]
smiles,measurement,setting,value
CCCCCCCCCCCCCOc1cccc(O)c1C(=O)O [Compound 1e],2-NBDG uptake increase compared to the DMSO control,[1],approximately 2.0 fold
same,Akt phosphorylation in PA-induced insulin-resistant C2C12 cells,[2],restoring it to levels similar to those in the non-insulin-resistant group

# — publication PMC8999917, “Structure–Activity Relationship of Synthetic Ginkgolic Acid Analogs for Treating Type 2 Diabetes by PTPN9 Inhibition” (International Journal of Molecular Sciences, 2022)
